Assay [1] deals with T1, Bromodomain-containing protein 3 (Homo sapiens, UniProt Q15059). Kind of assay: Inhibition of BRD3 BD2 (unknown origin) using biotinylated tetra-acetylated H4 peptide SGRG-K(Ac)-GG-K(Ac)-GLG-K(Ac)-GGA-K(Ac)-RHRK-Biotin as substrate incubated for 1 hr by TR-FRET assay.
Assay [2] addresses T1, Bromodomain-containing protein 3. Kind of assay: Inhibition of BRD3 BD1 (unknown origin) using biotinylated tetra-acetylated H4 peptide SGRG-K(Ac)-GG-K(Ac)-GLG-K(Ac)-GGA-K(Ac)-RHRK-Biotin as substrate incubated for 1 hr by TR-FRET assay.
Assay [3] addresses T2, Bromodomain-containing protein 2 (Homo sapiens, UniProt P25440). The assay is described as follows: Inhibition of BRD2 BD2 (unknown origin) using biotinylated tetra-acetylated H4 peptide SGRG-K(Ac)-GG-K(Ac)-GLG-K(Ac)-GGA-K(Ac)-RHRK-Biotin as substrate incubated for 1 hr by TR-FRET assay. (In general: In TR-FRET formats the signal depends on donor and acceptor labels being close together.)

Assay [4] deals with T2, Bromodomain-containing protein 2. The assay is described as follows: Inhibition of BRD2 BD1 (unknown origin) using biotinylated tetra-acetylated H4 peptide SGRG-K(Ac)-GG-K(Ac)-GLG-K(Ac)-GGA-K(Ac)-RHRK-Biotin as substrate incubated for 1 hr by TR-FRET assay.
In assay [5] the target is T3, Bromodomain testis-specific protein (Homo sapiens, UniProt Q58F21). The assay is described as follows: Inhibition of BRDT BD2 (unknown origin) using biotinylated tetra-acetylated H4 peptide SGRG-K(Ac)-GG-K(Ac)-GLG-K(Ac)-GGA-K(Ac)-RHRK-Biotin as substrate incubated for 1 hr by TR-FRET assay.
In assay [6] the target is T3, Bromodomain testis-specific protein. The assay is described as follows: Inhibition of BRDT BD1 (unknown origin) using biotinylated tetra-acetylated H4 peptide SGRG-K(Ac)-GG-K(Ac)-GLG-K(Ac)-GGA-K(Ac)-RHRK-Biotin as substrate incubated for 1 hr by TR-FRET assay.
Assay [7] concerns the target T4, Voltage-gated inwardly rectifying potassium channel KCNH2 (Homo sapiens, UniProt Q12809). Kind of assay: Inhibition of hERG in HEK293 cells at -80 mV holding potential by automated patch clamp electrophysiology. The assay is classed as toxicity, cell-based. For orientation: Block of hERG is tested as a sign of cardiac risk.
Assay [8] has as its system MV4-11. Kind of assay: Antiproliferative activity against human MV4-11 cells assessed as inhibition of cell proliferation incubated for 72 hrs by CellTiterGlo luminescence assay. The assay is classed as functional, cell-based. The settings on record: MV4-11, 72 h.
The next assay deals with MOLM-13. Kind of assay: Antiproliferative activity against human MOLM-13 cells assessed as inhibition of cell proliferation incubated for 72 hrs by CellTiterGlo luminescence assay. The assay is classed as functional, cell-based. The settings on record: MOLM-13, 72 h. On the technique in general: ATP-based viability assays read luminescence as a measure of living cells.
In assay [9] the test system is MV4-11. The assay is described as follows: Antitumor activity against human MV4-11 cells xenografted in BALB/c nude mouse assessed as tumor growth inhibition at 37.5 mg/kg, po administered once daily for 21 days and measured every other day relative to control. The assay is classed as functional. As to conditions: MV4-11, 504 h, time 21 day, read-out: TGI.
Assay [10] deals with T4, Voltage-gated inwardly rectifying potassium channel KCNH2. The assay is described as follows: Inhibition of hERG expressed in HEK293 cells at -80 mV holding potential by whole-cell patch clamp technique. The assay is classed as toxicity, cell-based.

The term IC50 denotes the concentration that gives 50% inhibition.

T4 sequence (Q12809 whole entry): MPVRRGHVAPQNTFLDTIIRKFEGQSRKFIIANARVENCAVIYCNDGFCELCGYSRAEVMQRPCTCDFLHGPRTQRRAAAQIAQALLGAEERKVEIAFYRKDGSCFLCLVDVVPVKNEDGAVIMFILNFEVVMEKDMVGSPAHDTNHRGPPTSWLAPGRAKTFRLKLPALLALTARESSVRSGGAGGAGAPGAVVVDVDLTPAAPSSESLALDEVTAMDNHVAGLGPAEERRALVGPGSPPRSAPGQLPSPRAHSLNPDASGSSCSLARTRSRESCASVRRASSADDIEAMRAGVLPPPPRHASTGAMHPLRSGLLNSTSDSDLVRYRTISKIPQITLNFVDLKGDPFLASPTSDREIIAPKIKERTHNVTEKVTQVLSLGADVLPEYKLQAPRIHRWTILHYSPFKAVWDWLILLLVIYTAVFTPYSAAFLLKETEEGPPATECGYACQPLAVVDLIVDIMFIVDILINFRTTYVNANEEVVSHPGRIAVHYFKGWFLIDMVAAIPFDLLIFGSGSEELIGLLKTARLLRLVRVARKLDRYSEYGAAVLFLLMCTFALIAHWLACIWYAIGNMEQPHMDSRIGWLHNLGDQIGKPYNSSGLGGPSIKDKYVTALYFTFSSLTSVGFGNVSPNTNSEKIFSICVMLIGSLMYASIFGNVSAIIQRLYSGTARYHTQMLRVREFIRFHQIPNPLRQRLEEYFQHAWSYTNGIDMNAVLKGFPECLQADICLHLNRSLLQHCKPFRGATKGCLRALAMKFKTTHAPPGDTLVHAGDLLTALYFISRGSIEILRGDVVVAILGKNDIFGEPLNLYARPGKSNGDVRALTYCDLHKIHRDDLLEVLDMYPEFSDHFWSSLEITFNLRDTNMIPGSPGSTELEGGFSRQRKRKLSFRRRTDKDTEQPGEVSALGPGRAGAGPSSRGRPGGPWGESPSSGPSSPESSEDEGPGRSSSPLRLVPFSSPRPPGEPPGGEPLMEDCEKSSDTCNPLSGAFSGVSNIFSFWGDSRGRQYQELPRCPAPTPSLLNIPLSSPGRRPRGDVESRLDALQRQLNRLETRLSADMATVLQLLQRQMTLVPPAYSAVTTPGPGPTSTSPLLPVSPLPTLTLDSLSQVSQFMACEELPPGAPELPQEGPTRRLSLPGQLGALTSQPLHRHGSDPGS
T1 sequence (Q15059 whole entry): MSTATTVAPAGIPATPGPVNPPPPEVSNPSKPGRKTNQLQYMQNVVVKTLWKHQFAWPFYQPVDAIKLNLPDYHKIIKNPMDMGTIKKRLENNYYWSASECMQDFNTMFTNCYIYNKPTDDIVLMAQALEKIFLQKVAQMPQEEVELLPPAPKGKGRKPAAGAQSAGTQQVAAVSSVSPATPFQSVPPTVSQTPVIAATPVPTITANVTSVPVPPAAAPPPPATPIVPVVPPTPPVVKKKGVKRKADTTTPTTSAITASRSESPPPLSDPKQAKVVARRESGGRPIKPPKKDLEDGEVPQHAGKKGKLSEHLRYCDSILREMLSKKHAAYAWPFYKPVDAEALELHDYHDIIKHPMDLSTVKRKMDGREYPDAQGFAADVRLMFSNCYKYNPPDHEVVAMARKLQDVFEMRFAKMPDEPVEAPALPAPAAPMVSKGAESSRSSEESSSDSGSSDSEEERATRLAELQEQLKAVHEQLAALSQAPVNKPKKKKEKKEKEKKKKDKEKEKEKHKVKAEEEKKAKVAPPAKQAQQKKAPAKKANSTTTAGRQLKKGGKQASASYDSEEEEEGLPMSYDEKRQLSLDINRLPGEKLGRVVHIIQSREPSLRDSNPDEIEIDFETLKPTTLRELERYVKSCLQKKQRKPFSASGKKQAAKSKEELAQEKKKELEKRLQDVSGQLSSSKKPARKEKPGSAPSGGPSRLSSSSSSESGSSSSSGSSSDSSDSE
T2 sequence (P25440 whole entry): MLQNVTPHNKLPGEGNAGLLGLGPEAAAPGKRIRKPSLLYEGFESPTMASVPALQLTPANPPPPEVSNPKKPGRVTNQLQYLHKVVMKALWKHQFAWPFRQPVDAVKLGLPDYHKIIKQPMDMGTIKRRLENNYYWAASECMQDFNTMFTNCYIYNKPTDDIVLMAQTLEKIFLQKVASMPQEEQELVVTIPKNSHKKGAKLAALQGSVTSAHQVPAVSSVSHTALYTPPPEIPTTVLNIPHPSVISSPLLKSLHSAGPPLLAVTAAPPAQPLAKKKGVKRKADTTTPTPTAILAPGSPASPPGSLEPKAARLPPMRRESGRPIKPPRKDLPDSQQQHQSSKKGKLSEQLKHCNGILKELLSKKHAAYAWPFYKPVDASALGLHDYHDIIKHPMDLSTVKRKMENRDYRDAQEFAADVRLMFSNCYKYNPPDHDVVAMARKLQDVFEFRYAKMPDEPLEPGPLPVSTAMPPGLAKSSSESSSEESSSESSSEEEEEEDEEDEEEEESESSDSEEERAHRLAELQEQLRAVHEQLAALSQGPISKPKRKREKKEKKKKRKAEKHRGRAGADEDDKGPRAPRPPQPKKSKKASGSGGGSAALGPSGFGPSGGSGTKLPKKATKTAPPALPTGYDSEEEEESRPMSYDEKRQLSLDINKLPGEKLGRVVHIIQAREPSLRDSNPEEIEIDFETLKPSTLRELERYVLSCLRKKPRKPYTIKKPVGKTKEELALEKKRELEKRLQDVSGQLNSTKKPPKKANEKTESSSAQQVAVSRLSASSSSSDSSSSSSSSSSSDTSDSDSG

For the molecule `Cc1cc(F)cc(C)c1Oc1ccc(C(C)(C)O)cc1-c1cn(C)c(=O)cc1NCC(=O)N1CCOCC1`, the half-maximal inhibitory concentration (IC50) was 15.9 nM in [1]; 12800 nM in assay [2]; 11.1 nM in assay [3]; 13500 nM in assay [4]; 9.7 nM in assay [5]; 4390 nM in [6]. Also, the IC50 in assay [7] was over 30000 nM.

As to `CCNC(=O)COc1cc(=O)n(C)cc1-c1cc(C(C)(C)O)ccc1Oc1c(C)cccc1C`, the IC50 in assay [7] was over 30000 nM.

As for `CCNC(=O)c1cc2c(-c3cc(C(C)(C)O)ccc3Oc3c(C)cc(F)cc3C)cn(C)c(=O)c2[nH]1` [ABBV-744], the IC50 amounted to 15 nM in the assay on MV4-11 [8], 39 nM in the assay on MOLM-13, 2800 nM in assay [7] and 3100 nM in [10]. Moreover, the inhibition in vivo at 37.5 mg/kg in the assay on MV4-11 [9] is 55%.

The record behind these values is ChEMBL document CHEMBL5537163, “Discovery of Novel Phenoxyaryl Pyridones as Bromodomain and Extra-Terminal Domain (BET) Inhibitors with High Selectivity for the Second Bromodomain (BD2) to Potentially Treat Acute Myeloid Leukemia” (J Med Chem, 2024).
